{"source": "patent US20220194997A1", "about": "“SUMO PEPTIDES FOR TREATING NEURODEGENERATIVE DISEASES” (The Chinese University of Hong Kong, priority 2019, published 2022)", "key": {"[1]": {"biological_target": "T1, α-synuclein (Homo sapiens, UniProt P37840)", "T1 construct": "made in house; host or cells: Escherichia coli BL21(DE3), pET-28a (NcoI/XhoI)", "experiment": "Fibrillation (Thioflavin T) assay of SDS-induced α-synuclein aggregation", "assay_type": "biochemical", "description": "The reaction contained the mixture of 70 μM α-synuclein and different concentrations of SUMO1 variants, 40 μM Thioflavin T (ThT) (Sigma-Aldrich), 0.4 mM SDS in reaction buffer (20 mM HEPES, 150 mM NaCl, pH 7.4). Reactions were performed in quadruplicate in a black clear-bottomed 96-well plate (Nunc, Thermo Fisher Scientific) with a final volume of 150 μL. The plate was sealed with sealing membrane (Thermo Fisher Scientific) and loaded into an Infinite M1000 plate reader (Tecan), incubated at 37° C. without agitation. The fluorescence was detected at 30 min intervals, with excitation at 450 nm and with emission at 485 nm. Protein samples were analyzed after fibrillation assay using size-exclusion chromatography on a Superdex 200 GL 5/150 column (3 ml, GE Healthcare) in reaction buffer.\nSodium dodecyl sulfate (SDS) was added to mimic membrane environments and serve as nucleation scaffold to stimulate α-synuclein aggregation (Giehm et al., 2010).\nThioflavin T (ThT) assay was performed as previously described^5 with minor modifications. […] The potential pre-formed aggregates in α-synuclein were removed by centrifugation at 15,000 rpm for 15 min and filtering through a 0.2 μm filter before the experiments. Reactions were performed in a black clear-bottomed 96-well plate (Nunc, Thermo Fisher Scientific) sealed with clear adhesive sealing sheet (Thermo Fisher Scientific) to avoid evaporation and loaded into an Infinite® M1000 plate reader (Tecan), incubated at 37° C. for 7 days without agitation. The fluorescence was recorded at 485 nm with excitation wavelength of 450 nm at the interval of 30 min."}, "[2]": {"biological_target": "T1, α-synuclein", "experiment": "Microscale thermophoresis (MST) binding", "description": "The labelling reaction was performed according to the manufacturer's instructions. Unreacted dye was removed with the dye removal column supplied in the Protein Labelling Kit RED-NHS (NanoTemper Technologies) or desalting column (Bio-Rad). […] The labelled targets were adjusted to appropriate concentration for detection. The ligands were dissolved in reaction buffer and a series of 16 1:1 dilutions was prepared. For the measurement, each ligand dilution was mixed with one volume of labelled protein target. After 10 min incubation, the samples were loaded into standard or premium Monolith NT.115 Capillaries (NanoTemper Technologies). MST was measured using a Monolith NT.115 instrument (NanoTemper Technologies) at an ambient temperature of 25° C. Instrument parameters were adjusted to 20% LED power and medium MST power. Data of three independently pipetted measurements were analyzed (MO.Affinity Analysis software version 2.1.3, NanoTemper Technologies) using the signal from an MST-on time of 5 s.\nUnreacted dye was removed with desalting column (2K MWCO, Bio-Rad). The purity was monitored by measuring the ratio of protein to dye after the clean-up procedure. […]"}, "[3]": {"test_system": "α-synuclein (wild-type) transgenic Drosophila", "experiment": "Climbing assay after larval feeding", "assay_type": "in vivo", "details": "larval feeding 60, 120 or 240 μM, pilot study"}, "[4]": {"test_system": "α-synuclein-A30P transgenic Drosophila", "experiment": "Climbing assay after larval feeding", "assay_type": "in vivo", "details": "larval feeding 60, 120 or 240 μM, pilot study", "from_the_text": "(§1) The following fly strains were adopted in this study: gmr-GAL4 (RRID: BDSC_1104), elav-GAL4 (RRID: BDSC_458), UAS-α-synuclein-A30P (RRID: BDSC_8147), and UAS-α-synuclein-A53T (RRID: BDSC_8148). All strains were obtained from the Bloomington Drosophila Stock Center. To obtain PD model flies, virgin flies carrying the driver gmr-GAL4 or elav-GAL4 on X chromosome were crossed to males from UAS-α-synuclein-A30P/UAS-α-synuclein-A53T stocks. The progeny of these crosses was maintained on standard cornmeal medium supplemented with dry yeast in 25° C. incubator.\n(§2) Climbing assay was performed according to previously described^10. Briefly, a group of 10 flies from each condition were placed in individual plastic vial, and gently tapped to the bottom of the vail. The number of flies that could climb a height of 2 cm within 15 s was recorded. Each trial was repeated five times with 1 min recovery periods between each trials. Total 20 (10 males and 10 females) flies from each condition were tested for one genetic cross."}, "[5]": {"test_system": "α-synuclein-A53T transgenic Drosophila", "experiment": "Climbing assay after larval feeding", "assay_type": "in vivo", "details": "larval feeding 60, 120 or 240 μM, pilot study", "from_the_text": "as §1, §2"}, "[6]": {"test_system": "SH-SY5Y cells", "experiment": "Cellular uptake of Alexa 488 labelled peptide, confocal microscopy", "assay_type": "cell-based", "details": "1 h and 24 h, time course", "description": "SH-SY5Y cells were planted on 35 mm glass bottom confocal dishes and incubated overnight. After co-incubation with Alexa 488 labelled R8-SUMO1(31-55), cells were fixed with 4% paraformaldehyde for 15 min at room temperature at different time points and visualized by Leica TCS SP8 confocal microscope with 63X oil immersion objective."}, "[7]": {"details": "equimolar ratio (1:1), 70 μM α-synuclein, 37° C., 7 days"}}, "note": "Where no end group is shown, it is not given here.", "data": [{"molecule": "CC[C@H](C)[C@H](NC(=O)[C@H](Cc1ccc(O)cc1)NC(=O)[C@H](CCC(=O)O)NC(=O)CNC(=O)[C@H](CCC(=O)O)NC(=O)[C@H](CCCCN)NC(=O)[C@H](CCCCN)NC(=O)[C@@H](N)CC(=O)O)C(=O)N[C@@H](CCCCN)C(=O)N[C@@H](CC(C)C)C(=O)N[C@@H](CCCCN)C(=O)N[C@H](C(=O)N[C@H](C(=O)NCC(=O)N[C@@H](CCC(N)=O)C(=O)N[C@@H](CC(=O)O)C(=O)N[C@@H](CO)C(=O)N[C@@H](CO)C(=O)N[C@@H](CCC(=O)O)C(=O)N[C@H](C(=O)N[C@@H](Cc1c[nH]cn1)C(=O)N[C@@H](Cc1ccccc1)C(=O)N[C@@H](CCCCN)C(=O)N[C@H](C(=O)N[C@@H](CCCCN)C(=O)N[C@@H](CCSC)C(=O)N[C@H](C(=O)N[C@H](C(=O)N[C@@H](Cc1c[nH]cn1)C(=O)N[C@@H](CCC(=O)O)C(=O)N[C@@H](CCCCN)C(=O)N[C@@H](CCCCN)C(=O)N[C@@H](CCCNC(=N)N)C(=O)N[C@@H](CCCCN)C(=O)N[C@@H](CCC(=O)O)C(=O)N[C@@H](CO)C(=O)N[C@@H](Cc1ccc(O)cc1)C(=O)N[C@@H](CS)C(=O)N[C@@H](CCC(N)=O)C(=O)N[C@@H](CCCNC(=N)N)C(=O)N[C@@H](CCC(N)=O)C(=O)O)[C@@H](C)O)[C@@H](C)O)C(C)C)[C@@H](C)CC)[C@@H](C)CC)C(C)C", "note": "[SUMO1(15-55) (L44E, L47R)]", "values": [{"measurement": "inhibition of α-synuclein aggregation", "setting": "[1]; [7]", "value": "much weaker inhibition effect"}, {"measurement": "binding ability to α-synuclein compared with that of SUMO1(15-55)", "setting": "[2]", "value": "around 1/40"}]}, {"molecule": "SUMO1(31-55): residues 31-55 of human SUMO1, a beta sheet followed by an alpha-helix (SSEIHFKVKMTTHLKKLKESYCQRQ)", "values": [{"measurement": "locomotor dysfunction (climbing)", "setting": "[3]", "value": "improved the locomotor dysfunction"}, {"measurement": "locomotor dysfunction (climbing)", "setting": "[4]", "value": "improved the locomotor dysfunction"}, {"measurement": "locomotor dysfunction (climbing)", "setting": "[5]", "value": "improved the locomotor dysfunction"}]}, {"molecule": "RRRRRRRRSSEIHFKVKMTTHLKKLKESYCQRQ [R8-SUMO1(31-55)]", "values": [{"measurement": "internalization into cells", "setting": "[6]", "value": "internalization into SH-SY5Y cells at a high efficiency"}]}, {"molecule": "His-SUMO1(31-55): SUMO1(31-55) with an N-terminal 10×His tag ({10xHis tag}-SSEIHFKVKMTTHLKKLKESYCQRQ; UniProt P63165 31-55, looked up, fragment)", "values": [{"measurement": "inhibition of α-synuclein aggregation", "setting": "[1]; ratio of 1:5 or 1:10 α-synuclein: SUMO peptide inhibitor", "value": "partial inhibition"}]}, {"molecule": "SUMO1(20-40): SUMO1 derived peptide, residues 20-40 (EYIKLKVIGQDSSEIHFKVKM; UniProt P63165 20-40, looked up, fragment)", "values": [{"measurement": "inhibition of α-synuclein aggregation", "setting": "[1]; [7]", "value": "not effective"}]}, {"molecule": "SUMO2(16-51): residues 16-51 of human SUMO2, identical sequence to SUMO3(15-50) (DHINLKVAGQDGSVVQFKIKRHTPLSKLMKAYCERQ; UniProt P61956 16-51, looked up, fragment)", "values": [{"measurement": "inhibition of α-synuclein aggregation", "setting": "[1]; [7]", "value": "suppressed"}, {"measurement": "delay of the initiation of the aggregation", "setting": "[1]; half molar ratio", "value": 2, "unit": "days"}]}]}
